Results published in patent US10653657B2, “Method for treating hemolytic uremic syndrome” (ENZYCHEM LIFESCIENCES CORPORATION, priority 2015, dated 2020).

How the values were obtained:
[1] = target: T1, STAT6 (Homo sapiens, UniProt P42226); assay: Dephosphorylation of STAT6 (Western blot, anti-phosphorylated STAT6) in IL-4 stimulated cells; type: cell-based; details: U937, Jurkat and A549 cells; PLAG 0.01 to 10 μg/ml; 10 ng/ml IL-4; 15 min after stimulation
T1 construct: endogenous in cells; host or cells: U937, A549, Jurkat
T1 sequence (P42226 1-847): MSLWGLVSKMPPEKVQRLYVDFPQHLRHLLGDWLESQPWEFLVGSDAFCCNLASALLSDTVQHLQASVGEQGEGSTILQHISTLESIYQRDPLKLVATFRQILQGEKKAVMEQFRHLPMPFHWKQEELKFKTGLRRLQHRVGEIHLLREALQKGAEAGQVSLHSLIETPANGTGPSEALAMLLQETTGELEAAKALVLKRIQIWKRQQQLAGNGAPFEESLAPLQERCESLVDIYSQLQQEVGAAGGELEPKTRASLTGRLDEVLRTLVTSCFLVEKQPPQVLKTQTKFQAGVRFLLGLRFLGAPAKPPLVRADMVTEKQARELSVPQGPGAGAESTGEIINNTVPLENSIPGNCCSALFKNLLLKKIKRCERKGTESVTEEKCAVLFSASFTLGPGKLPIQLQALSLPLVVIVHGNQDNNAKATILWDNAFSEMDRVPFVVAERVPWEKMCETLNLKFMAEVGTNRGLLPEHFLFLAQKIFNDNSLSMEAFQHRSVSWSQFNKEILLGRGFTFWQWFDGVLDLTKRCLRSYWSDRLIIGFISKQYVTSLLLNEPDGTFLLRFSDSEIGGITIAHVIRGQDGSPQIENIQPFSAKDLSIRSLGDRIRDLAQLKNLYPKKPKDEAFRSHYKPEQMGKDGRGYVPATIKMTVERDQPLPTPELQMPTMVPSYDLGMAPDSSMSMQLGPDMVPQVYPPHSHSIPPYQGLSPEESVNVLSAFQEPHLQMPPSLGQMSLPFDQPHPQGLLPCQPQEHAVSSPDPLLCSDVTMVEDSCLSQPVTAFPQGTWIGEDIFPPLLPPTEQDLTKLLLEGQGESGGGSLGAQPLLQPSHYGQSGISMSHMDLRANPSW
Procedure: Dephosphorylation of STAT6 is examined using anti-phosphorylated STAT6 in U937, A549, and Jurkat cell lysates treated with PLAG at a concentration of from 0.01 to 10 μg/ml. Phosphorylation of STAT6 is induced by treatment with 10 ng/ml of IL-4. Dephosphorylation of STAT1 is examined in the U937 cell lysate treated with PLAG (0.01 to 10 μg/ml). Phosphorylation of STAT1 is induced by 10 ng of IFN-γ treatment. Dephosphorylation of STAT1 and STAT6 is examined at 15 min after stimulation with IFN-γ and IL-4 respectively, in the PLAG pretreated cells. […] The transcriptional activity of STAT6 is decreased by the dephosphorylation of STAT6. […] No effect of PLAG on STAT1 phosphorylation is observed.

[2] = system: STAT6; assay: STAT6 transcriptional activity (luciferase) in gene transfected HepG2 cells; type: cell-based, human; details: 10 ng IL-4, PLAG 0.01-10 μg/ml, 12 hour incubation
Procedure: (§1) By using STAT6 inhibitor (S6I), it is confirmed that the reduction of complement 3 in HepG2 cells (human hepatocyte cell line) is regulated by STAT6. […] It is also confirmed that PLAG has selective efficacy on STAT6 over STAT1. FIG. 1 presents graphs showing STAT1 and STAT6 transcriptional activity in the PLAG treated HepG2 cells. NC refers to the unstimulated control cell. For the STAT1 assay, gene transfected HepG2 (human hepatocyte cell line) is treated with 10 ng of IFN-γ and serially diluted PLAG is added (0.01 μg/ml, 0.1 μg/ml, 1 μg/ml, and 10 μg/ml as shown) to see its effect on gene expression in the stimulated cell. For the STAT6 assay, gene transfected HepG2 cells are treated with 10 ng of IL-4 and again serially diluted PLAG is added (0.01 μg/ml, 0.1 μg/ml, 1 μg/ml, and 10 μg/ml as shown) to see its effect on gene expression in the stimulated cell. The assay is carried out following a 12 hour incubation of treated cells.

[3] = system: STAT1; assay: STAT1 transcriptional activity (luciferase) in gene transfected HepG2 cells; type: cell-based, human; details: 10 ng IFN-γ, PLAG 0.01-10 μg/ml, 12 hour incubation
Procedure: as §1

[4] = system: C3; assay: C3 expression in HMC-1 cells induced with IL-4 and TNF-α (RT-PCR / blots); type: cell-based, human
Procedure: A blood cell line, HMC-1 (human mast cell, American Type Culture Collection, ATCC, Rockville, Md.) is incubated and maintained at 37° C. under 5% CO2 humid conditions. The medium is IMDM (Life Technologies, Karlsruhe, Germany) containing 10% Fetal Calf Serum (FCS, HyClone, Logan, Utah), 2 mM […], 100 μg/ml penicillin, 100 μg/ml streptomycin (Life Technologies). The cultured HMC-1 cells (1×10^6 cells/ml) are pre-treated with 0.1 and 1 μg/mL concentrations of PLAG, followed by treatment with IL-4 (5 ng) and/or TNF-α (10 ng) to induce cellular activities.
The expressed C3 and its mRNA level change are observed by using RT-PCR (Reverse Transcriptase Polymerase Chain Reaction). The RT-PCR is carried out as follows: the total RNA is separated by the standard protocol and cDNA is synthesized using AccuScript High Fidelity 1st Strand cDNA Synthesis Kit (Stratagene). Two-step RT-PCR reaction is conducted using Oligo-dT primer and reverse transcriptase, a pair of primers and Taq polymerase (Takara, Shiga, Japan). […] The product of PCR is separated using 1.5% agarose gel, dyed with ethidium bromide (EtBr), and visualized with Gel Doc 2000 UV trans-illuminator (Bio-Rad Laboratories, Hercules, Calif., USA), and the experimental data is analyzed using Quantity One software (Bio-Rad Laboratories).

[5] = system: C3; assay: C3 inhibition in HMC-1 cells, ELISA of expressed protein; type: cell-based, human; details: PLAG 1, 10 and 100 μg/mL for 2 hours; activated 72 hours with 10% FBS
Procedure: In a separate experiment, human mast cells (HMC-1, 1×10^5 cells/ml) are treated with PLAG at various concentrations (1, 10 and 100 μg/mL) for 2 hours. The cells are activated for 72 hours with 10% FBS (Fetal bovine serum)-containing IMDM. The decrease of C3 is confirmed by ELISA analysis of the expressed protein.

[6] = system: C3; assay: C3 mRNA expression in HepG2 cells by RT-PCR; type: cell-based, human
Procedure: A liver cell line, HepG2 (American Type Culture Collection, ATCC, Rockville, Md.), is incubated and maintained at 37° C., 5% CO2 humid atmosphere in DMEM medium. When HepG2 cells, which are known to produce complement in culture, are treated with PLAG, the activity of complement is reduced effectively, as confirmed by RT-PCR of mRNA. In the RT-PCR, 5×10^5 HepG2 cells/ml are distributed into 12 well plates and induced C3 for 12 hours with 10% FCS. Then PLAG is added and further cultured for 2 hours. Cells are harvested and mRNA is isolated and RT-PCR is carried out with specific primers for C3; GAPDH is used as an internal control.

[7] = system: C3; assay: C3 in culture supernatant of HepG2 cells by ELISA; type: cell-based, human; details: PLAG 1 to 100 μg/ml; IL-4 and TNF-α 1 hr, then 18 hr at 37° C.
Procedure: (§2) The incubated HepG2 cell lines are treated with PLAG (1˜100 μg/ml), followed by IL-4 and TNF-α, reacted for 1 hour, incubated for 18 hours at 37° C. and the supernatant is isolated. Quantitation of the amount of C3 in the cellular culture medium (supernatant) from HepG2 cells is performed by ELISA using a commercially available monoclonal antibody (mAb, R&D Systems) and the manufacture's protocol; the results are presented in FIGS. 3A-3C. C3 is expressed spontaneously under in vitro culture conditions using 10% FCS added to HepG2 cells incubated for 12 hr. The cells are treated with different doses of PLAG from 1 to 100 μg/ml (FIG. 3A, FIG. 3B) or 10 and 100 μg/ml of S6I (FIG. 3C), reacted with IL-4 and TNF-α for 1 hr and then incubated for 18 hr at 37° C. Cellular viability is confirmed using the WST-1 assay (FIG. 3A).

[8] = system: HepG2 cells; assay: WST-1 cell viability assay in HepG2 cells; type: cell-based; details: PLAG 1 to 100 μg/ml
Procedure: as §2

[9] = Colony forming units (CFUs) in spleen assay in heavily irradiated mice; type: in vivo; details: PLAG 50 mg/kg/d i.p. or p.o.
Procedure: Colony Forming Units (CFUs) in Spleen Assay in Vivo: In order to determine the in vivo effect of PLAG on the recovery of hematopoiesis, a CFUs assay is performed in heavily irradiated mice.

[10] = system: complement 3; assay: Complement 3 activation by chemotherapeutic agents in mouse model; type: in vivo; details: mice; PLAG 50 mg/kg daily 3 weeks with Gemcitabine, Cyclosphosphamide or Tamoxifen
Procedure: The effect of PLAG for treatment of chemotherapy-induced thrombocytopenia (CIT) is evaluated in an animal model. Anti-cancer agents (Gemcitabine 50 mg/kg, Cyclosphosphamide 100 mg/kg, or Tamoxifen 50 mg/kg) are dosed daily for 3 weeks; PLAG is also administered at a dose of 50 mg/kg daily for 3 weeks.
It is believed that the neutropenia and thrombocytopenia of these agents and other chemotherapeutic agents may be due at least in part to a specific complement-mediated toxicity. This is seen in FIG. 5.

[11] = system: hematopoietic stem cells and megakaryocytes; details: reported in WO 99/26640; cited from earlier work

CCCCC/C=C\C/C=C\CCCCCCCC(=O)OC(COC(C)=O)COC(=O)CCCCCCCCCCCCCCC (racemic) [PLAG, 1-palmitoyl-2-linoleoyl-3-acetylglycerol]
IL-4 treatment induced STAT6 phosphorylation [1]: inhibited with increasing PLAG concentrations | STAT6 expression (transcriptional activity, luciferase) [2]: significant, dose-dependent effect | STAT1 expression (transcriptional activity, luciferase) [3]: no effect | Expression of C3 in HMC-1 cells ([4]; pre-treated with 0.1 and 1 μg/mL PLAG, then IL-4 (5 ng) and TNF-α (10 ng)): suppressed by PLAG on a concentration dependent basis | Decrease of C3 (ELISA) in HMC-1 cells [5]: proportional to the concentration of PLAG | Inhibition of C3 expression (RT-PCR) in HepG2 ([6]; PLAG 1 μg/ml, 2 hours, C3 induced 12 hours with 10% FCS): somewhat | Inhibition of C3 expression (RT-PCR) in HepG2 ([6]; PLAG 10 μg/ml, 2 hours, C3 induced 12 hours with 10% FCS): entirely | Expression of C3 (ELISA, HepG2 supernatant) [7]: decreased dose-dependently | Cellular propagation and death (WST-1 viability) [8]: does not affect | Number of splenic nodules, primitive progenitor cells and megakaryocytes [9]: marked increase | Complement 3 activation caused by chemotherapeutic agents [10]: largely blocked | Growth-stimulating activities of hematopoietic stem cells and megakaryocytes [11]: have growth-stimulating activities

NC(=O)c1cnc(NCCc2ccc(O)c(Cl)c2)nc1NCc1ccccc1 [S6I, reference compound]
Expression of C3 in HMC-1 cells ([4]; IL-4 and TNF-α followed by S6I): comparable | Inhibition of C3 expression (RT-PCR) in HepG2 ([6]; S6I 10 and 100 μg/ml, compared with PLAG 1 and 10 μg/ml): comparable
